Values of other authors, collected in patent US20110152372A1, “ANHYDROUS PETROLEUM JELLY/ELASTOMER-FREE DEPIGMENTING COMPOSITIONS COMPRISING A SOLUBILIZED PHENOLIC COMPOUND AND A RETINOID” (Galderma Research & Development, priority 2008, published 2011).
Read-outs that look alike come from different tables or passages of the source.

In the case of `Oc1ccc(O)cc1` [hydroquinone], the Incidence of irritation (10% concentrations) is given as “relatively high”, the Incidence of irritation (concentration of 2%) is given as “virtually nonexistent” and the Incidence of irritation (preparations with a 5% dose) is given as “reduces greatly”.
